According to US10369089B2, “Iron oxide nanoparticles and methods of use thereof” (THE TRUSTEES OF THE UNIVERSITY OF PENNSYLVANIA, priority 2015, dated 2019):

Columns and labels:
[1] = system: insoluble and soluble EPS; experiment: EPS degradation within biofilms; format: cell-based, Streptococcus mutans UA159; conditions: 30 min after H2O2 exposure; vs control
Description: Biofilms were formed on saliva-coated hydroxyapatite (sHA) surfaces (tooth enamel-like material) using Streptococcus mutans, a well-established biofilm-forming, acidogenic and matrix-producing oral pathogen (FIG. 9). The hydroxyapatite discs (surface area, 2.7±0.2 cm^2) were purchased from Clarkson Chromatography and the bacteria strain, Streptococcus mutans UA159, was purchased from ATCC. The biofilm method is based on the saliva-coated hydroxyapatite (sHA) disc model (see Xiao et al., PLoS Pathog. 2012; Klein et al., J Vis Exp. 2011; Falsetta et al., Infect Immun., 2014; Koo et al., J Bacteriol, 2010; Koo et al., J Antimicrob Chemother, 2003). […] The biofilms were collected and analyzed at specific time points (19 h, 29 h and 43 h) by means of confocal fluorescence imaging, microbiological and biochemical analyses (Xiao et al., PLoS Pathog. 2012; Klein et al., J Vis Exp. 2011; Falsetta et al., Infect Immun., 2014; Koo et al., J Bacteriol, 2010; Koo et al., J Antimicrob Chemother, 2003).
To investigate whether CAT-NP-mediated H2O2 catalysis and generation of free-radicals in situ can kill embedded bacteria and degrade the EPS-matrix within biofilms, the following experiments were performed. […] Biofilms treated with CAT-NPs (0.5 mg/ml) were immediately exposed to H2O2 (0.1 to 1%, v/v) and the number of viable cells and EPS content were determined (FIG. 13A and FIG. 14). […]

dental caries = experiment: Rodent model of dental caries; format: in vivo, Sprague-Dawley rats; conditions: rats, topical twice-daily for 3 weeks; vs. vehicle control
Procedure: In brief, animal experiments were performed on a well-established rodent model of dental caries (Bowen, Odontology, 2013; […] et al., Infect Immun, 2014; Horev, ACS Nano, 2015; Koo et al., J Dent Res, 2005). Briefly, Sprague-Dawley rats, 15 days old, were purchased with their dams from Harlan Laboratories (Madison, Wis., USA) and screened for infection with S. mutans. Any animals infected with S. mutans prior to inoculation were removed from the study. The animals were then infected orally using an actively growing (mid-logarithmic) culture of S. mutans UA159 and their infection was checked via oral swabbing. Infected animals were randomly placed into four treatment groups (12 animals/group) and their teeth were treated topically using a custom-made applicator twice daily. The treatment groups included: […] Agents were applied topically (orally-delivered; 100 μL per rat) twice-daily for 3 weeks, with brief exposures (30 s) to simulate clinical use. Each group was provided with the National Institutes of Health cariogenic diet 2000 and 5% sucrose water ad libitum. The experiment proceeded for 3 weeks. All animals were weighed weekly and their physical appearance was noted daily. All animals gained weight equally among the experimental groups and remained in good health during the experimental period. […]

[2] = Degradation of purified glucans produced by GtfB and GtfD; format: biochemical; conditions: 0.1 M NaOAc pH 4.5, 37° C., 30 min
Procedure: Given that free-radicals produced from H2O2 catalysis can also degrade polysaccharides in vitro (Gao et al., Nanoscale, 2014), the amount of EPS in the CAT-NP-treated biofilms was analyzed following exposure to H2O2. For assessment of EPS degradation, 100 μg of (insoluble or soluble) glucans produced by purified glucosyltransferases (GtfB or GtfD) (Koo et al., Antimicrob Agents Chemother, 2002) were mixed with each of the treatment solutions (in 0.1 M NaOAc, pH 4.5) and incubated at 37° C. for 30 min. The glucans were manufactured as follows. Each of the Gtf enzymes (10 U) were mixed with a sucrose substrate buffer (100 mM sucrose, 20 μM dextran 9,000, 50 mM KCl, 1.0 mM KPO4, 1.0 mM CaCl2 and 0.1 mM MgCl2, pH 6.5) and incubated for 4 h at 37° C. After incubation, the glucans produced were collected by centrifugation, washed and the total amounts were determined by standard phenol-sulfuric acid colorimetric assay (Koo et al., J Antimicrob Chemother, 2003; Koo et al., Antimicrob Agents Chemother, 2002). One hundred micrograms of glucan was mixed with each of the treatment solutions (total reaction volume of 300 μl in 0.1 M NaOAc, pH 4.5) and incubated at 37° C. for 30 min with rocking. After incubation, the amount of reducing sugars was determined by Somogyi-Nelson colorimetric assay.

S. mutans biofilms = experiment: Biofilm disruption after twice daily topical treatment (confocal microscopy); format: cell-based, Streptococcus mutans UA159; conditions: CAT-NP 0.5 mg/ml, H2O2 1%, in vitro
Description: To determine the retention and the spatial distribution of CAT-NPs within an intact biofilm 3D architecture, multiphoton confocal microscopy and computational analysis were used (Xiao et al., PLoS Pathog. 2012; Klein et al., J Vis Exp, 2011; Koo et al., J Bacteriol, 2010). The exopolysaccharides (EPS) (in red) were labeled using […] Alexa Fluor 647-labeled dextran conjugate (10 kDa; 647/668 nm; Molecular Probes Inc., Invitrogen Corp., Carlsbad, Calif., USA) and the bacterial cells (in green) were stained with 2.5 μM SYTO 9 (485/498 nm; Molecular Probes Inc.). The CAT-NPs (in white) were detected via their inherent non-linear optical property using multiphoton confocal microscopy (Xiao et al., PLoS Pathog, 2012; Klein et al., J Vis Exp, 2011; Liao et al., Adv Funct Mater, 2013; Koo et al., J Bacteriol, 2010; Liao et al., Adv Funct Mater, 2013). Imaging was performed using a Leica SP5 multiphoton confocal microscope with a 20× LPlan N (1.05 numerical aperture) water immersion objective lens. […] The confocal images were analyzed using software for simultaneous visualization and quantification of EPS, bacterial cells and CAT-NPs within the intact biofilms. […] COMSTAT and ImageJ were used for quantitative analysis as previously described (Xiao et al., PLoS Pathog. 2012; Klein et al., J Vis Exp. 2011; Koo et al., J Bacteriol, 2010). […]

[3] = system: gingival and palatal tissues; parameters: species or system Sprague-Dawley rats; conditions: rat, in vivo
Description: Each group was provided with the National Institutes of Health cariogenic diet 2000 and 5% sucrose water ad libitum. The experiment proceeded for 3 weeks. All animals were weighed weekly and their physical appearance was noted daily. All animals gained weight equally among the experimental groups and remained in good health during the experimental period. At the end of the experimental period, the animals were sacrificed and the jaws were surgically removed and dissected. All of the jaws were defleshed and the teeth were prepared for caries scoring according to Larson's modification of Keyes' system disease (see Larson, Animal models in cariology: symposium and workshop proceedings special supplement of microbiology abstracts, 1981; Bowen, Odontology, 2013; […] et al., Infect Immun, 2014; Horev, ACS Nano, 2015). Determination of the caries score of the codified jaws was performed by one calibrated examiner. Furthermore, both the gingival and palatal tissues were collected and processed for hematoxylin and eosin (HE) staining for histopathological analysis.

Compound | amounts of insoluble and soluble EPS within biofilms [1] | initiation and severity of carious lesions (caries scoring) (dental caries) | degradation of glucans from GtfB and GtfD (glucose released) [2] | biofilm disruption (accumulation of bacterial cells and EPS-matrix) (S. mutans biofilms) | cytotoxic effects in gingival and palatal tissues (histopathology) [3]
OO [H2O2, hydrogen peroxide] | inability to reduce EPS within biofilms | without significant effect | failed to cleave either glucan | limited anti-biofilm effects | no cytotoxic effects
iron oxide nanoparticles [IO-NPs] | – | – | – | – | no cytotoxic effects
